Experimental data from ChEMBL document CHEMBL5357060, “Cytotoxic Polyhydroxy-Isoprenoids from Neodidymelliopsis negundinis” (J Nat Prod, 2024).
Converted amounts (≈) assume the structure as drawn.

Legend:
[1] = Cytotoxicity against mouse L929 cells assessed as reduction in cell viability incubated for 5 days by MTT assay; assay type: toxicity, cell-based
KB 3-1 = assay: Antiproliferative activity against human KB-3-1 cells assessed as reduction in cell growth incubated for 5 days by MTT assay; assay type: functional, cell-based; conditions: KB 3-1, 120 h
PC-3 = assay: Antiproliferative activity against human PC-3 cells assessed as reduction in cell growth incubated for 5 days by MTT assay; assay type: functional, cell-based; conditions: PC-3, 120 h
MCF7 = assay: Antiproliferative activity against human MCF7 cells assessed as reduction in cell growth incubated for 5 days by MTT assay; assay type: functional, cell-based; conditions: MCF7, 120 h
SK-OV-3 = assay: Antiproliferative activity against human SK-OV-3 cells assessed as reduction in cell growth incubated for 5 days by MTT assay; assay type: functional, cell-based; conditions: SK-OV-3, 120 h
A-431 = assay: Antiproliferative activity against human A-431 cells assessed as reduction in cell growth incubated for 5 days by MTT assay; assay type: functional, cell-based; conditions: A-431, 120 h
A549 = assay: Antiproliferative activity against human A549 cells assessed as reduction in cell growth incubated for 5 days by MTT assay; assay type: functional, cell-based; conditions: A549, 120 h
Bacillus subtilis = assay: Antibacterial activity against Bacillus subtilis DSM 10 incubated overnight by serial dilution assay; assay type: functional
Staphylococcus aureus [2] = assay: Antibacterial activity against Staphylococcus aureus DSM 346 incubated overnight by serial dilution assay; assay type: functional
Staphylococcus aureus [3] = assay: Antibiofilm activity against Staphylococcus aureus DSM 1104 assessed as increase in biofilm inhibition at 250 ug/ml incubated for 24 hrs by crystal violet staining based plate reader analysis relative to control; assay type: functional; design: scale not given: the % may be the effect or the level left; conditions: dose 250 µg/ml
Candida albicans [4] = assay: Antibiofilm activity against Candida albicans DSM 11225 assessed as increase in biofilm inhibition at 250 ug/ml incubated for 24 hrs by crystal violet staining based plate reader analysis relative to control; assay type: functional; design: scale not given: the % may be the effect or the level left; conditions: dose 250 µg/ml
Candida albicans [5] = assay: Antibiofilm activity against Candida albicans DSM 11225 assessed as increase in biofilm inhibition at 125 microg/ml incubated for 24 hrs by crystal violet staining based plate reader analysis relative to control; assay type: functional; design: scale not given: the % may be the effect or the level left; conditions: dose 125 µg/ml

- IC50 (KB 3-1): 8.3 µM
- IC50 (PC-3): 4.8 µM
- IC50 (MCF7): 4.8 µM
- IC50 (SK-OV-3): 4.8 µM
- IC50 (A-431): 4.8 µM
- IC50 (A549): 4.8 µM
- MIC (Bacillus subtilis): 16.6 µg/mL (≈ 18.1 µM)
- MIC (Staphylococcus aureus [2]): 33.3 µg/mL (≈ 36.3 µM)
SMILES: C/C(=C\CC/C(C)=C/CO[C@@H]1O[C@H](CO)[C@@H](O)[C@H](O)[C@@H]1O)CC/C=C(\C)CCCC(C)(O)CCCC(C)(O)CCCC(C)(O)CCCC(C)(O)CCCC(C)(O)CCC(O)C(C)(C)O (some centres not stated)
- IC50 at 5 days [1]: 8.1 µM
- Activity (Staphylococcus aureus [3]): 85%
- Activity (Candida albicans [4]): 71%
- Activity (Candida albicans [5]): 66%
